Measurements: PubChem BioAssay AID1963825 (Molecular Pharmacology Branch, DTP, NCI, 2024)

Assay: Anticancer human tumor 997537-175-T-J1-PDC patient-derived colon adenocarcinoma cell line growth inhibition [POLQ]
Settings: 997537-175-T-J1-PDC complex spheroid viability, combination with POLQ inhibitors; for IC50: curve of first compound; for viability, T/C: stronger effect = lower value
How it was run: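 PDC + HUVEC + MSC complex spheroids; POLQ inhibitors ± partner drugs; top conc. at/near clinical Cmax, else 10 microM (SN-38 1 microM), half-log dilutions; 37 degrees C, 5% CO2.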
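Further: luminescence signal used as a surrogate for viable cells; spheroids exposed to drugs for seven days before readout.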

## CC(=O)O[C@H]1C(=O)[C@@]2(C)[C@H]([C@H](OC(=O)c3ccccc3)[C@]3(O)C[C@H](OC(=O)[C@H](O)[C@@H](NC(=O)c4ccccc4)c4ccccc4)C(C)=C1C3(C)C)[C@]1(OC(C)=O)CO[C@@H]1C[C@@H]2O + Cc1cccc(N(C)C(=O)C2C(O)CCN2c2nc(C)cc(C(F)(F)F)c2C#N)c1
Second compound 0.0316 µM
  IC50: < 9.49 nM
Second compound 0.1 µM
  IC50: < 9.49 nM
Second compound 0.316 µM
  IC50: 32.2 nM
Second compound 1 µM
  IC50: < 9.49 nM
Second compound 3.16 µM
  IC50: 20.9 nM
Second compound 10 µM
  IC50: < 9.49 nM
Second compound 0.0316 µM, first compound 0.00949 µM
  viability, T/C: 56%
Second compound 0.0316 µM, first compound 0.03 µM
  viability, T/C: 32.5%
Second compound 0.0316 µM, first compound 0.0949 µM
  viability, T/C: 16.2%
Second compound 0.0316 µM, first compound 0.3 µM
  viability, T/C: 20.3%
Second compound 0.0316 µM, first compound 0.949 µM
  viability, T/C: 35.2%
Second compound 0.0316 µM, first compound 3 µM
  viability, T/C: 41.5%
Second compound 0.1 µM, first compound 0.00949 µM
  viability, T/C: 53.7%
Second compound 0.1 µM, first compound 0.03 µM
  viability, T/C: 39%
Second compound 0.1 µM, first compound 0.0949 µM
  viability, T/C: 45.4%
Second compound 0.1 µM, first compound 0.3 µM
  viability, T/C: 32.4%
Second compound 0.1 µM, first compound 0.949 µM
  viability, T/C: 41.5%
Second compound 0.1 µM, first compound 3 µM
  viability, T/C: 35.5%
Second compound 0.316 µM, first compound 0.00949 µM
  viability, T/C: 54.1%
Second compound 0.316 µM, first compound 0.03 µM
  viability, T/C: 51.6%
Second compound 0.316 µM, first compound 0.0949 µM
  viability, T/C: 30.1%
Second compound 0.316 µM, first compound 0.3 µM
  viability, T/C: 29.8%
Second compound 0.316 µM, first compound 0.949 µM
  viability, T/C: 26.2%
Second compound 0.316 µM, first compound 3 µM
  viability, T/C: 20.3%
Second compound 1 µM, first compound 0.00949 µM
  viability, T/C: 41%
Second compound 1 µM, first compound 0.03 µM
  viability, T/C: 32.3%
Second compound 1 µM, first compound 0.0949 µM
  viability, T/C: 28.3%
Second compound 1 µM, first compound 0.3 µM
  viability, T/C: 39.7%
Second compound 1 µM, first compound 0.949 µM
  viability, T/C: 34.3%
Second compound 1 µM, first compound 3 µM
  viability, T/C: 31.9%
Second compound 3.16 µM, first compound 0.00949 µM
  viability, T/C: 79.5%
Second compound 3.16 µM, first compound 0.03 µM
  viability, T/C: 38.5%
Second compound 3.16 µM, first compound 0.0949 µM
  viability, T/C: 20.8%
Second compound 3.16 µM, first compound 0.3 µM
  viability, T/C: 40.2%
Second compound 3.16 µM, first compound 0.949 µM
  viability, T/C: 31.5%
Second compound 3.16 µM, first compound 3 µM
  viability, T/C: 34.2%
Second compound 10 µM, first compound 0.00949 µM
  viability, T/C: 48.1%
Second compound 10 µM, first compound 0.03 µM
  viability, T/C: 38.8%
Second compound 10 µM, first compound 0.0949 µM
  viability, T/C: 47.5%
Second compound 10 µM, first compound 0.3 µM
  viability, T/C: 30.6%
Second compound 10 µM, first compound 0.949 µM
  viability, T/C: 26.2%
Second compound 10 µM, first compound 3 µM
  viability, T/C: 53.9%
